# Experimental data: patent US12435062B2, “Amide compounds and uses thereof” (HUTCHISON MEDIPHARMA LIMITED, priority 2020, dated 2025)
# What was measured:
# [1] = system: Ba/F3^BCR-FMS-11 cells; test: Cell proliferation experiment (Ba/F3^BCR-FMS-11, cckit-8); format: cell-based, mouse; conditions: Ba/F3^BCR-FMS-11 cell proliferation
# Procedure: Cell Proliferation Experiment
# Ba/F3^BCR-FMS-11, mouse primary B lymphocytes stably expressing the BCR-FMS fusion gene. The cells were cultured in an RPMI 1640 medium containing 10% FBS.
# (§1) 2. Reagents and instruments
# • cckit-8 kit: Dojindo, 9 CK04; • Envision: Perkin Elmer; • Cell culture plate: Facol, 9353027. 3. Experimental steps
# The BCR-FMS fusion gene was transfected into Ba/F3 cells, and the cell line Ba/F3^BCR-FMS-11 that stably expresses BCR-FMS and grows depending on CSF-1R was screened. Ba/F3^BCR-FMS-11 cell proliferation experiments is completed by using the Cell Counting kit cckit-8 in a 96-well plate. In a 96-well plate, 5000/well of Ba/F3^BCR-FMS-11 cells were inoculated at 100 μL/well. […] 10 μL of the compound dilutions with the above 8 concentrations were added to the culture cell wells. The culture was incubated in a 37° C. and 5% CO2 cell incubator for 72 hours. 10 μL of Cell Counting kit cckit-8 detection reagent was added to each well, and incubated at 37° C. and 5% CO2 in a cell incubator for another 1 h. The optical density absorption value at 450 nm of each well was detected by using Perkin Elmer Envision instrument.
# wherein • Drug-treated well read-out: indicating the optical density signal of a cell well with the test compound treatment. • Cell well read-out: indicating the optical density signal of a cell well not treated with the test compound (only 0.5% DMSO). • Background read-out: indicating the optical density signal of a well with the cell medium. 5. Calculation of IC50: obtained by using XL-Fit 5.3 software. 6. Test results
# [2] = molecular target: CSF1R phosphorylation in THP-1 cells (Homo sapiens (Human), UniProt P07333); test: Detection of CSF1R phosphorylation activity at cell level (THP-1, M-CSF stimulated, ELISA); format: cell-based; conditions: p-CSF1R ELISA, compound 60 min, 300 ng/mL M-CSF 1 min
# CSF1R phosphorylation in THP-1 cells, sequence (P07333 20-972): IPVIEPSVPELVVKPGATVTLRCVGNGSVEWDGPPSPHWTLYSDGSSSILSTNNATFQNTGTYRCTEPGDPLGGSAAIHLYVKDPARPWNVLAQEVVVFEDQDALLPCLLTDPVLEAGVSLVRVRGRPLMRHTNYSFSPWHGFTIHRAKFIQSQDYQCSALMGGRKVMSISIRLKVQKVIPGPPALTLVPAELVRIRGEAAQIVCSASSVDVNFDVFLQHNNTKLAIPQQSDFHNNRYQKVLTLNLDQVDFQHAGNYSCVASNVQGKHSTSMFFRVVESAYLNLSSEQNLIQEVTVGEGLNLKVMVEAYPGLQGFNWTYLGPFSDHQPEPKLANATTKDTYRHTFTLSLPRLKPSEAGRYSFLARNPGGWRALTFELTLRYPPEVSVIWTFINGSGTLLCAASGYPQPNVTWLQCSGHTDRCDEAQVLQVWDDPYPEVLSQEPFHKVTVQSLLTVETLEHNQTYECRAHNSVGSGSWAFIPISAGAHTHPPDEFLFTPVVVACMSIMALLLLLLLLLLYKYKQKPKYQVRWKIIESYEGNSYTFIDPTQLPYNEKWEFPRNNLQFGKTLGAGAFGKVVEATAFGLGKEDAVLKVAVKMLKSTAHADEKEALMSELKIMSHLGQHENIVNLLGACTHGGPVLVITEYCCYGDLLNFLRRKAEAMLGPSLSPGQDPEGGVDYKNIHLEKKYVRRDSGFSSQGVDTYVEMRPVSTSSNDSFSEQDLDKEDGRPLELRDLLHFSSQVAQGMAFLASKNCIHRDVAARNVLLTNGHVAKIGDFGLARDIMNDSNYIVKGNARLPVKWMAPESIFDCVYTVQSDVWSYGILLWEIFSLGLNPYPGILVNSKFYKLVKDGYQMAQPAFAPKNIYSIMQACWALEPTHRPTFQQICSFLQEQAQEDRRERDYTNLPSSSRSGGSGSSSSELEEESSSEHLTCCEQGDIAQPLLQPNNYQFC
# Procedure: Detection of CSF1R Phosphorylation Activity at Cell Level
# THP-1 (ATCC), human acute monocytic leukemia cells. The cells were cultured in an RPMI 1640 medium containing 10% FBS.
# as §1
# • Human phosphorylation-CSF1R ELISA kit: R&D, #DYC3268-2; • RPMI 1640 culture solution: GIBCO, 910491; • Human M-CSF recombinant cytokine: R&D, 9216-MC-500; • Cell lysis buffer: Cell Signal, 99803S; • 1×PBS buffer (1 L): 8.0 g of NaCl, 0.2 g of KCl, 3.58 g of Na2HPO4-12H2O, 0.24 g of KH2PO4 were dissolved in 1 L of dd H2O, and the pH was adjusted to 7.4; • Blocking solution: PBS buffer containing 1% BSA; • PBST washing liquid: PBS buffer containing 0.05% Tween-20; • Chromogenic substrate: R&D, #DY999; • 2N H2SO4; • Microwell plate reader: Labsystems Multiskan K3: Thermo; Envision: Perkin Elmer; • ELISA plate: Corning, #9018; • Cell culture plate: Facol, #353027. 3. Treatment of cells and preparation of lysis buffer
# THP-1 cells were resuspended in RPMI-1640 culture solution containing 2% FBS, and the culture was added to a 96-well plate at a density of 5×10^4/well, 50 μL/well, and cultured in a cell incubator at 5% CO2 and 37° C. overnight; The test compound was diluted with a serum-free RPMI-1640 medium to 3, 1.1, 0.37, 0.12, 0.04, 0.014, 0.005 and 0.002 μM, and the concentration of DMSO was 5%. 5 μL of the diluted compound was added to the 50 μL cell culture system, the culture was cultured in a 5% CO2, 37° C. cell incubator for 60 min, 300 ng/mL of M-CSF was added to the cells, and the mixture was stimulated in the 37° C. cell incubator for 1 min, added 50 μL of cell lysis buffer, and stored in a refrigerator at −80° C.
# 100 μL/well of the p-CSF1R capture antibody diluted to 0.8 μg/mL with PBS was added to the ELISA plate, and the plate was coated on a shaker at room temperature overnight. The culture was washed with PBST, and then added blocking solution and incubated at room temperature for 2 h. The culture was washed with PBST, added 90 μL of cell lysis buffer, and incubated on a shaker at 25° C. for 2 h. The plate was washed with PBST three times, added 100 μL of anti-p-tyrosine-HRP detection antibody diluted with 0.1% PBS-BSA diluent, and incubated on a shaker at 25° C. for 2 h. The plate was washed with PBST washing liquid, added 100 μL of chromogenic substrate and incubated at room temperature for 10-20 min. The reaction was stopped by adding 50 μL of 2N H2SO4. The optical density signal (450/570 nm) of each well was detected in Labsystems Multiskan K3 or Envision.
# wherein • Drug-treated well read-out: indicating the optical density signal of a cell well with the test compound treatment. • Background read-out: indicating the optical density signal of a well without cells but with cell lysis buffer. • Cell well read-out: indicating the optical density signal of a cell well not treated with the compound. 6. Calculation of IC50: obtained by using XL-Fit 5.3 software. 7. Test results
# [3] = molecular target: Recombinant human CSF1R kinase (Homo sapiens (Human), UniProt P07333); format: biochemical; conditions: Z-LYTE Tyr 1 peptide substrate
# Recombinant human CSF1R kinase, sequence (P07333 20-972): as above
SMILES,"IC50 ([1]; Mus musculus, 72 h) [nM]",IC50 [2] [nM],IC50 [3] [nM],IC50 ([1]; 72 hours) [nM]
"Cc1ncc(C(=O)Nc2ccc(Oc3ccnc(-c4cnn(C)c4)c3)cn2)c(=O)n1C [Compound 8, 1,2-dimethyl-N-(5-((2-(1-methyl-1H-pyrazol-4-yl)pyridin-4-yl)oxy)pyridin-2-yl)-6-oxo-1,6-dihydropyrimidine-5-carboxamide]",7,4,4,–
"Cn1cc(-c2cc(Oc3ccc(NC(=O)c4ccc[nH]c4=O)nc3)ccn2)cn1 [Compound 9, N-(5-((2-(1-methyl-1H-pyrazol-4-yl)pyridin-4-yl)oxy)pyridin-2-yl)-2-oxo-1,2-dihydropyridine-3-carboxamide]",107,105,12,–
Cn1cc(-c2cc(Oc3ccc(NC(=O)c4cncn(C)c4=O)nc3)ccn2)cn1 [Compound 10],88,62,15,–
Cn1cc(-c2cc(Oc3ccc(NC(=O)c4cnc5n(c4=O)CCC5)nc3)ccn2)cn1 [Compound 11],6,6,5,–
Cc1c(F)cc(C(=O)Nc2ccc(Oc3ccnc(-c4cnn(C)c4)c3)cn2)c(=O)n1C [Compound 12],66,143,9,–
Cc1ncn(C)c(=O)c1C(=O)Nc1ccc(Oc2ccnc(-c3cnn(C)c3)c2)cn1 [Compound 13],231,42,91,–
CC(C)n1cccc(C(=O)Nc2ccc(Oc3ccnc(-c4ncn(C)n4)c3)cn2)c1=O [Compound 15],–,215,34,493
Cc1cnc(Nc2cc(Oc3ccc(NC(=O)c4cnc(C)n(C)c4=O)nc3)ccn2)s1 [Compound 16],45,20,88,–
COc1cc(Oc2ccnc(-c3cnn(C)c3)c2)ccc1NC(=O)c1cccn(C(C)C)c1=O [Compound 18],57,60,13,–
CC(C)n1cccc(C(=O)Nc2ccc(Oc3ccnc(-c4cnn(C)c4)c3)cc2F)c1=O [Compound 20],44,109,8,–
Cn1cnc(-c2cc(Oc3cnc(NC(=O)c4cccn(C)c4=O)c(F)c3)ccn2)c1 [Compound 21],73,43,28,–
Cn1cc(-c2cc(Oc3cnc(NC(=O)c4cccn(C)c4=O)c(F)c3)ccn2)cn1 [Compound 22],14,10,11,–
Cc1ncc(C(=O)Nc2ncc(Oc3ccnc(-c4cnn(C)c4)c3)cc2F)c(=O)n1C [Compound 23],45,38,22,–
Cc1cc(Oc2ccnc(-c3cnn(C)c3)c2)cnc1NC(=O)c1cccn(C(C)C)c1=O [Compound 24],37,59,30,–
CC(C)n1cccc(C(=O)Nc2ncc(Oc3ccnc(-c4cnn(C)c4)c3)cc2C#N)c1=O [Compound 25],66,38,16,–
Cn1cc(-c2cc(Oc3ccc(NC(=O)c4ccc5n(c4=O)CCC5)nc3)ccn2)cn1 [Compound 27],8,18,8,–
Cc1ncc(C(=O)Nc2ccc(Oc3ccnc(-c4cn(C)cn4)c3)cn2)c(=O)n1C [Compound 30],24,14,35,–
Cc1cn(-c2cc(Oc3ccc(NC(=O)c4cnc(C)n(C)c4=O)nc3)ccn2)cn1 [Compound 32],99,15,59,–

SMILES,"IC50 ([1]; Mus musculus, 72 h) [nM]",IC50 [2] [nM],IC50 [3] [nM],IC50 ([1]; 72 hours) [nM]
Cc1ncc(C(=O)Nc2ccc(Oc3ccnc(-c4cccnc4)c3)cn2)c(=O)n1C [Compound 33],58,15,62,–
Cc1ncc(C(=O)Nc2ccc(Oc3ccnc(-c4ccccn4)c3)cn2)c(=O)n1C [Compound 34],125,24,79,–
Cc1cccc(Nc2cc(Oc3ccc(NC(=O)c4cnc(C)n(C)c4=O)nc3)ccn2)n1 [Compound 36],–,8,28,23
CCn1cc(-c2cc(Oc3ccc(NC(=O)c4cnc(C)n(C)c4=O)nc3)ccn2)cn1 [Compound 38],17,7,12,–
Cc1ncc(C(=O)Nc2ccc(Oc3ccnc(-c4cnn(C(C)C)c4)c3)cn2)c(=O)n1C [Compound 39],63,12,33,–
Cc1ncc(C(=O)Nc2ccc(Oc3ccnc(-c4ccncc4)c3)cn2)c(=O)n1C [Compound 41],52,19,27,–
Cc1ncc(C(=O)Nc2ccc(Oc3ccnc(Nc4ccn(C)n4)c3)cn2)c(=O)n1C [Compound 42],6,6,5,–
Cc1ncc(C(=O)Nc2ccc(Oc3ccnc(Nc4ccnn4C)c3)cn2)c(=O)n1C [Compound 43],5,6,6,–
Cn1ccc(Nc2cc(Oc3ccc(NC(=O)c4cnc5n(c4=O)CCC5)nc3)ccn2)n1 [Compound 44],6,3,7,–
Cn1cc(Nc2cc(Oc3ccc(NC(=O)c4cnc5n(c4=O)CCC5)nc3)ccn2)cn1 [Compound 45],9,3,9,–
Cn1ccc(Nc2cc(Oc3ccc(NC(=O)c4cccn(C)c4=O)nc3)ccn2)n1 [Compound 46],20,9,12,–
Cn1nccc1Nc1cc(Oc2ccc(NC(=O)c3cnc4n(c3=O)CCC4)nc2)ccn1 [Compound 47],6,3,5,–
Cn1nccc1Nc1cc(Oc2ccc(NC(=O)c3cccn(C)c3=O)nc2)ccn1 [Compound 48],5,5,5,–
Cc1ncc(C(=O)Nc2ccc(Oc3ccnc(-c4cnn(C(F)F)c4)c3)cn2)c(=O)n1C [Compound 49],24,14,23,–
Cc1ncc(C(=O)Nc2ccc(Oc3ccnc(-c4ccc(F)cc4)c3)cn2)c(=O)n1C [Compound 50],112,54,78,–
Cc1ncc(C(=O)Nc2ccc(Oc3ccnc(-c4ccccc4)c3)cn2)c(=O)n1C [Compound 51],97,67,56,–
CCn1cccc(C(=O)Nc2ccc(Oc3ccnc(-c4cnn(C)c4)c3)cn2)c1=O [Compound 55],5,7,3,–
